From ChEMBL document CHEMBL1909046, “DrugMatrix in vitro pharmacology data” come the findings set out here.

Assay [1] deals with 5-hydroxytryptamine receptor 4 (Cavia porcellus, UniProt O70528). Type of assay: cell membranes, Dunkin-Hartley, Striatum, Membrane. Particulars: for pIC50: read-out: IC50; for pKi: read-out: Ki.
Assay [2] is described as follows: DRUGMATRIX: GABAA, Chloride Channel, TBOB radioligand binding (ligand: [3H] TBOB). It is filed as cell membranes, Rattus norvegicus, Wistar, Cerebral cortex, Membrane. Particulars: Not Active = under 50% inhibition at 10 µM.
Assay [3] is described as follows: DRUGMATRIX: Glutamate, NMDA, Phencyclidine radioligand binding (ligand: [3H] TCP). Particulars: Not Active = under 50% inhibition at 10 µM. It is filed as cell membranes, Rattus norvegicus, Wistar, Cerebral cortex, Membrane.
The target in the next assay is Melanocortin receptor 3 (Homo sapiens, UniProt P41968). It is filed as cell membranes, Membrane. Particulars: hek293. Note: in other assays of this panel Not Active means under 50% inhibition at 10 µM.
Melanocortin receptor 3, sequence (P41968 whole entry): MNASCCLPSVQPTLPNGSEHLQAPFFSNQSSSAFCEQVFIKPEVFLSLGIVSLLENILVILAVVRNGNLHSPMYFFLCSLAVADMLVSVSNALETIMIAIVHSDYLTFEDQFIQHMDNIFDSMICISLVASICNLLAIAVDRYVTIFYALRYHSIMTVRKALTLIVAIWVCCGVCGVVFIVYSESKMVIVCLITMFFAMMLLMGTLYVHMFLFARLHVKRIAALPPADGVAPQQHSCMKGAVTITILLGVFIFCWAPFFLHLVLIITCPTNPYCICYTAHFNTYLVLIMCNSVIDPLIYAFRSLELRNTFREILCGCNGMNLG
A short description of assay [4]: DRUGMATRIX: Potassium Channel [KATP] radioligand binding (ligand: [3H] Glyburide). It is filed as cell membranes, Membrane. Particulars: hit-t15; Not Active = under 50% inhibition at 10 µM.
For the next assay, the target named is T1, Caspase-1 (Homo sapiens, UniProt P29466).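 Note: Caspase-1 enzyme inhibition assay with a peptide substrate; in other assays of this panel Not Active means under 50% inhibition at 10 µM.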
T1 sequence (P29466 whole entry): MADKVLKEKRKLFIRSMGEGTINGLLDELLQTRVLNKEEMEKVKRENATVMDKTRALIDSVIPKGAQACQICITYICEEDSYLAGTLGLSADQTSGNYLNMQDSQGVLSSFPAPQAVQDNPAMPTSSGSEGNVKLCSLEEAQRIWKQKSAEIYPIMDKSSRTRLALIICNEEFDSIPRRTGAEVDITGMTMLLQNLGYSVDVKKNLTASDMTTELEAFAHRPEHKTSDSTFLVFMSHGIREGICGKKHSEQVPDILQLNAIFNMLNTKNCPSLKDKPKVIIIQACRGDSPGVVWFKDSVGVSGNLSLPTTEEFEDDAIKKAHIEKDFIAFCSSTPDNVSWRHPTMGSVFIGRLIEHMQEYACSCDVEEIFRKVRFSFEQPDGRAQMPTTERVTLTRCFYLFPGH
Also on record: species or system Escherichia coli.

A word on the pIC50: it is the negative decadic logarithm of the IC50, by convention in mol/L. In general, pKi refers to the Ki on a negative log10 scale, so that one unit is a factor of ten.

pIC50, pKi: −log10 of the molar value.

5-hydroxytryptamine receptor 4, sequence (O70528 whole entry): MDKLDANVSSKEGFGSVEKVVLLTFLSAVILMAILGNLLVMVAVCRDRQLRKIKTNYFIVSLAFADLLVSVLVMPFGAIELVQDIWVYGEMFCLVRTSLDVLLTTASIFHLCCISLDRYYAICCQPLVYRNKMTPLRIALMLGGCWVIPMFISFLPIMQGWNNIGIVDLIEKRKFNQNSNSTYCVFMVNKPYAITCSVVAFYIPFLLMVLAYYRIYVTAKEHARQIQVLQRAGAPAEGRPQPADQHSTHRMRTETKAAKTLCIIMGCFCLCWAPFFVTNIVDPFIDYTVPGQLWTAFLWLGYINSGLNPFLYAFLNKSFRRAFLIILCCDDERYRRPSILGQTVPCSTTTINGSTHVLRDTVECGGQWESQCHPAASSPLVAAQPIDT

Turning to `O=NN(CCCl)C(=O)NCCCl` [CARMUSTINE], the IC50 result (in assay [1]; in assay [2]; in assay [3]; on Melanocortin receptor 3; in assay [4]; against Caspase-1) was “Not Active” each time. Also, the Ki entry in assay [2], in assay [3] and in assay [4] was “Not Active” throughout.

With `CC1=C(C(=O)O)N2C(=O)[C@@H](NC(=O)[C@H](N)c3ccccc3)[C@H]2SC1` [CEPHALEXIN ANHYDROUS], the IC50 entry (in assay [1]; in assay [2]; in assay [3]; at Melanocortin receptor 3; in assay [4]; against Caspase-1) was “Not Active” each time. Also, the Ki result in assay [2], in assay [3] and in assay [4] was “Not Active” in each case.

In the case of `O=C(N[C@H](CO)[C@H](O)c1ccc([N+](=O)[O-])cc1)C(Cl)Cl` [CHLORAMPHENICOL], the IC50 result (in assay [1]; in assay [2]; in assay [3]; against Melanocortin receptor 3; in assay [4]; on Caspase-1) was “Not Active” in each case. Further, the Ki result in assay [2], in assay [3] and in assay [4] was “Not Active” each time.

With `ClC(Cl)Cl` [CHLOROFORM], the IC50 entry (in assay [1]; in assay [2]; in assay [3]; against Melanocortin receptor 3; in assay [4]; against Caspase-1) was “Not Active” in each case. Also, the Ki entry in assay [2], in assay [3] and in assay [4] was “Not Active” each time.

As for `C=C1CC[C@H](O)C/C1=C/C=C1\CCC[C@]2(C)[C@@H]([C@H](C)CCCC(C)C)CC[C@@H]12` [CHOLECALCIFEROL], the IC50 entry (in assay [1]; in assay [2]; in assay [3]; at Melanocortin receptor 3; in assay [4]; at Caspase-1) was “Not Active” in each case. In addition, the Ki entry in assay [2], in assay [3] and in assay [4] was “Not Active” throughout.

On to `C[N+](C)(C)CCO.[Cl-]` [CHOLINE CHLORIDE], for which the IC50 result (in assay [1]; in assay [2]; in assay [3]; against Melanocortin receptor 3; in assay [4]; against Caspase-1) was “Not Active” each time. In addition, the Ki result in assay [2], in assay [3] and in assay [4] was “Not Active” in each case.

For the molecule `CCOC(=O)C(C)(C)Oc1ccc(Cl)cc1` [CLOFIBRATE], the IC50 result (in assay [1]; in assay [2]; in assay [3]; against Melanocortin receptor 3; in assay [4]; on Caspase-1) was “Not Active” throughout. Besides, the Ki result in assay [2], in assay [3] and in assay [4] was “Not Active” each time.

As to `CC(=O)OCC(=O)[C@@]1(O)CC[C@H]2[C@@H]3CCC4=CC(=O)CC[C@]4(C)[C@H]3C(=O)C[C@@]21C` [CORTISONE ACETATE], the IC50 entry (in assay [1]; in assay [2]; in assay [3]; at Melanocortin receptor 3; in assay [4]; at Caspase-1) was “Not Active” each time. Further, the Ki entry in assay [2], in assay [3] and in assay [4] was “Not Active” throughout.

`O=c1ccc2ccccc2o1` [COUMARIN]: the IC50 entry (in assay [1]; in assay [2]; in assay [3]; at Melanocortin receptor 3; in assay [4]; against Caspase-1) was “Not Active” throughout. The Ki result in assay [2], in assay [3] and in assay [4] was “Not Active” each time.

On to `C[C@@H]1C[C@@H]([C@H](O)CC2CC(=O)NC(=O)C2)C(=O)[C@@H](C)C1` [CYCLOHEXIMIDE], for which the IC50 entry (in assay [1]; in assay [2]; in assay [3]; at Melanocortin receptor 3; in assay [4]; against Caspase-1) was “Not Active” in each case. Further, the Ki entry in assay [2], in assay [3] and in assay [4] was “Not Active” throughout.

For the molecule `CN(C)/N=N/c1[nH]cnc1C(N)=O` [DACARBAZINE], the IC50 result (in assay [1]; in assay [2]; in assay [3]; against Melanocortin receptor 3; in assay [4]; against Caspase-1) was “Not Active” throughout. Further, the Ki entry in assay [2], in assay [3] and in assay [4] was “Not Active” each time.

As for `COc1ccc2c(c1)[C@]13CCCC[C@@H]1[C@H](C2)N(C)CC3` [DEXTROMETHORPHAN], the IC50 entry (in assay [1]; in assay [2]; against Melanocortin receptor 3; in assay [4]; against Caspase-1) was “Not Active” in each case. Also, the Ki result in assay [2] and in assay [4] was “Not Active” each time. Moreover, the pIC50 in assay [3] (read-out: IC50) is 5.62. Further, the pKi in assay [3] (read-out: Ki) was 5.79.

For the molecule `CC(=O)Nc1c(I)c(NC(C)=O)c(I)c(C(=O)O)c1I` [DIATRIZOIC ACID], the IC50 result (in assay [1]; in assay [2]; in assay [3]; against Melanocortin receptor 3; in assay [4]; against Caspase-1) was “Not Active” each time. In addition, the Ki result in assay [2], in assay [3] and in assay [4] was “Not Active” in each case.

On to `COP(=O)(OC)OC=C(Cl)Cl` [DICHLORVOS], for which the IC50 entry (in assay [1]; in assay [2]; in assay [3]; against Melanocortin receptor 3; in assay [4]; against Caspase-1) was “Not Active” throughout. The Ki result in assay [2], in assay [3] and in assay [4] was “Not Active” in each case.

For `O=C(O)Cc1ccccc1Nc1c(Cl)cccc1Cl` [DICLOFENAC], the IC50 entry (in assay [1]; in assay [2]; in assay [3]; against Melanocortin receptor 3; in assay [4]; against Caspase-1) was “Not Active” throughout. Further, the Ki result in assay [2], in assay [3] and in assay [4] was “Not Active” throughout.

On to `C[C@H]1O[C@@H](O[C@H]2[C@@H](O)C[C@H](O[C@H]3[C@@H](O)C[C@H](O[C@H]4CC[C@@]5(C)[C@H](CC[C@@H]6[C@@H]5CC[C@]5(C)[C@@H](C7=CC(=O)OC7)CC[C@]65O)C4)O[C@@H]3C)O[C@@H]2C)C[C@H](O)[C@@H]1O` [DIGITOXIN], for which the IC50 result (in assay [1]; in assay [2]; in assay [3]; on Melanocortin receptor 3; in assay [4]; against Caspase-1) was “Not Active” throughout. For the same molecule, the Ki entry in assay [2], in assay [3] and in assay [4] was “Not Active” each time.

For `CCN1CC(CCN2CCOCC2)C(c2ccccc2)(c2ccccc2)C1=O` (configuration not stated) [DOXAPRAM], the IC50 entry (in assay [1]; in assay [2]; in assay [3]; at Melanocortin receptor 3; in assay [4]; against Caspase-1) was “Not Active” each time. In addition, the Ki result in assay [2], in assay [3] and in assay [4] was “Not Active” each time.

Regarding `Cn1c(=O)c2c(ncn2CC2OCCO2)n(C)c1=O` [DOXOFYLLINE], the IC50 entry (in assay [1]; in assay [2]; in assay [3]; against Melanocortin receptor 3; in assay [4]; at Caspase-1) was “Not Active” in each case. Moreover, the Ki entry in assay [2], in assay [3] and in assay [4] was “Not Active” in each case.

Consider `COc1cccc2c1C(=O)c1c(O)c3c(c(O)c1C2=O)C[C@@](O)(C(=O)CO)C[C@@H]3O[C@H]1C[C@H](N)[C@H](O)[C@H](C)O1` [DOXORUBICIN], for which the pIC50 in assay [1] is 4.90; at Caspase-1 (read-out: IC50) it was 4.91. Also, the pKi in assay [1] was 5.68. Also, the IC50 result (in assay [2]; in assay [3]; on Melanocortin receptor 3; in assay [4]) was “Not Active” throughout. Besides, the Ki result in assay [2], in assay [3] and in assay [4] was “Not Active” throughout.

Turning to `COc1cccc2c1C(=O)c1c(O)c3c(c(O)c1C2=O)C[C@@](O)(C(=O)CO)C[C@@H]3O[C@H]1C[C@H](N)[C@@H](O)[C@H](C)O1` [EPIRUBICIN], the pIC50 in assay [1] is 5.10. The pKi in assay [1] was 5.88. In addition, the IC50 entry (in assay [2]; in assay [3]; against Melanocortin receptor 3; in assay [4]; at Caspase-1) was “Not Active” in each case. Besides, the Ki result in assay [2], in assay [3] and in assay [4] was “Not Active” throughout.
